Test results from patent publication US20090042917A1, “Aminopyrimidine Derivative and Plant Disease Control Agent for Agricultural or Horticultural Use” (KUMIAI CHEMICAL INDUSTRY CO., LTD., priority 2006, published 2009).

Experiments:
[1] = system: Pyricularia oryzae; experiment: whole plant or invertebrate; type: in vivo; conditions: for pest or weed control at 500 ppm: Pyricularia oryzae, 120 h, read-out: control level
[2] = system: Pseudoperonospora cubensis; experiment: Test on protective effect against Pseudoperonospora cubensis (cucumber seedlings); type: in vivo; conditions: 500 ppm active ingredient sprayed on cucumber (Sagami-Hanziro) seedlings before inoculation, 6 days after; for pest or weed control at 500 ppm: Pseudoperonospora cubensis, 144 h, read-out: control level
Procedure: 4 cucumber seeds (variety: Sagami-Hanziro) were sown in each plastic cup having a diameter of 5.5 cm and allowed to grow for 7 days in a greenhouse. […] After air drying, the plants were inoculated by spraying with a conidia suspension of Pseudoperonospora cubensis. The inoculated plants were immediately put in a moist chamber at 20° C. (relative humidity of 100%) for 24 hours. Thereafter, the plants were transferred to a greenhouse. 6 days after, disease development indexes of cotyledons for total pots were examined according to the standard described below, a disease severity was determined using an expression shown below and a control level (%) was calculated using another expression shown below. The standard for disease development index is as follows: [table] Hereinbelow, an expression to calculate a disease severity (%) is shown. [formula] Hereinbelow, an expression to calculate a control level (%) is shown. [formula]

[3] = system: Rhizoctonia solani; experiment: Test on protective effect against Rhizoctonia solani (rice pot test); type: in vivo; conditions: 500 ppm active ingredient sprayed on rice (Kinmaze) at 2.5 to 3-leaf stage before inoculation, 5 days after inoculation; for pest or weed control at 500 ppm: Rhizoctonia solani, 120 h, read-out: control level
Procedure: 15 rice seeds (variety: Kinmaze) were sown in each clay pot having a diameter of 7.5 cm and allowed to grow for 3 weeks in a greenhouse. […] After air drying, the plants were inoculated by uniformly covering the surface of the soil with Rhizoctonia solani cultured in a rice-husk bran medium and incubated in a moist chamber at 30° C. […] The standard for disease development index is as follows: [table] Hereinbelow, an expression to calculate a control level (%) is shown. [formula]

[4] = system: Septoria nodorum; experiment: Test on protective effect against Septoria nodorum (wheat); type: in vivo; conditions: 500 ppm active ingredient sprayed on wheat (Norin No. 61) at two-leaf stage before inoculation, 9 days after; for pest or weed control at 500 ppm: Parastagonospora nodorum, 216 h, read-out: control level
Procedure: 10 wheat seeds (variety: Norin No. 61) were sown in each plastic cup having a diameter of 5.5 cm and allowed to grow for 9 days in a greenhouse. […] After air drying, the plants were inoculated by spraying with a pycnidiospore suspension of Septoria nodorum. The inoculated plants were immediately put in a moist chamber at 25° C. (relative humidity of 100%) for 48 hours. Thereafter, the plants were transferred to a greenhouse. 9 days after, disease development indexes of first leaves for total pots were examined according to the standard in Test Example 3, a disease severity was determined using the expression in Test Example 3 and a control level (%) was calculated using the expression in Test Example 3.

[5] = system: Botrytis cinerea; experiment: Test on protective effect against Botrytis cinerea (cucumber seedlings); type: in vivo; conditions: 500 ppm active ingredient sprayed on cucumber (Sagami-Hanziro) seedlings before inoculation; 2 days after
Procedure: 4 cucumber seeds (variety: Sagami-Hanziro) were sown in each plastic cup having a diameter of 5.5 cm and allowed to grow for 7 days in a greenhouse. […] After air drying, a sterilized paper disc was immersed in a conidia suspension of Botrytis cinerea and laid on an upper side of a cucumber cotyledon for innoculation and thereafter cared in a moist chamber at 20° C.

[6] = system: Erysiphe graminis; experiment: Test on protective effect against Erysiphe graminis (wheat); type: in vivo; conditions: Blumeria graminis, 168 h; 500 ppm active ingredient sprayed on wheat (Norin No. 61) at 1.5 to 2-leaf stage before inoculation; 7 days after; read-out: control level
Procedure: 10 wheat seeds (variety: Norin No. 61) were sown in each plastic cup having a diameter of 5.5 cm and allowed to grow for 8 days in a greenhouse. […] After air drying, the plants were inoculated by equally sprinkling with conidia of Erysiphe graminis by using a midget duster or the like for innoculation and then incubated in a greenhouse until a development of disease. 7 days after, disease development indexes of first leaves for total pots were examined according to the standard in Test Example 3, a disease severity was determined using the expression in Test Example 3 and a control level (%) was calculated using the expression in Test Example 3.

Clc1nc(-n2cccn2)nc(N2CCCC2)c1Cc1ccccc1 [Comparative Compound 1, reference compound]
control level ([1]; 500 ppm active ingredient sprayed on rice (Aichi Asahi) at four-leaf stage before inoculation, lesions counted 5 days after inoculation): did not exhibit a control effect
control level [2]: did not exhibit a control effect
control level [3]: did not exhibit a control effect
control level [4]: did not exhibit a control effect
control level [5]: did not exhibit a control effect

Cc1cc(C)n(-c2nc(C)c(C)c(NN)n2)n1 [Comparative Compound 2, reference compound]
pest or weed control at 500 ppm [3]: 50%
pest or weed control at 500 ppm [4]: 75%
control level [5]: 25%

CCC(C)c1c(NC(C)C)nc(-n2cccn2)nc1C(F)(F)F (centres unmarked) [Compound No. 0240, 5-sec-butyl-N-(1-methylethyl)-2-(1H-pyrazol-1-yl)-6-trifluoromethylpyrimidine-4-amine]
pest or weed control at 500 ppm [1]: 100%
pest or weed control at 500 ppm [6]: 100%
melting point: 85 to 87 °C

CCC(C)c1c(F)nc(-n2cccn2)nc1NCC(F)(F)F (centres unmarked) [Compound No. 0349, 5-sec-butyl-6-fluoro-2-(1H-pyrazol-1-yl)-N-(2,2,2-trifluoroethyl)pyrimidine-4-amine]
pest or weed control at 500 ppm [1]: 100%
pest or weed control at 500 ppm [6]: 100%
pest or weed control at 500 ppm [2]: 100%
pest or weed control at 500 ppm [3]: 100%
pest or weed control at 500 ppm [4]: 100%
melting point: 132 to 134 °C

CCC(C)c1c(Cl)nc(-n2cccn2)nc1NCC(F)(F)F (centres unmarked) [Compound No. 0350, 5-sec-butyl-6-chloro-2-(1H-pyrazol-1-yl)-N-(2,2,2-trifluoroethyl)pyrimidine-4-amine]
pest or weed control at 500 ppm [1]: 100%
pest or weed control at 500 ppm [6]: 100%
pest or weed control at 500 ppm [2]: 100%
pest or weed control at 500 ppm [3]: 100%
pest or weed control at 500 ppm [4]: 100%
melting point: 137 to 139 °C

CCC(C)c1c(Br)nc(-n2cccn2)nc1NCC(F)(F)F (centres unmarked) [Compound No. 0351, 6-bromo-5-sec-butyl-2-(1H-pyrazol-1-yl)-N-(2,2,2-trifluoroethyl)pyrimidine-4-amine]
pest or weed control at 500 ppm [1]: 100%
pest or weed control at 500 ppm [6]: 100%
pest or weed control at 500 ppm [2]: 100%
pest or weed control at 500 ppm [3]: 100%
pest or weed control at 500 ppm [4]: 100%
melting point: 136 to 139 °C

CCC(C)c1c(O)nc(-n2cccn2)nc1NCC(F)(F)F (centres unmarked) [Compound No. 0353, 5-sec-butyl-2-(1H-pyrazol-1-yl)-6-(2,2,2-trifluoroethylamino)pyrimidin-4-ol]
melting point: 141 to 143 °C

CCC(C)c1c(NCC(F)(F)F)nc(-n2cccn2)nc1OC(F)F (centres unmarked) [Compound No. 0358, 5-sec-butyl-6-difluoromethoxy-2-(1H-pyrazol-1-yl)-N-(2,2,2-trifluoroethyl)pyrimidine-4-amine]
pest or weed control at 500 ppm [1]: 100%
pest or weed control at 500 ppm [6]: 100%
pest or weed control at 500 ppm [2]: 100%
melting point: 94 to 95 °C

CCC(C)c1c(NCC(F)(F)F)nc(-n2cccn2)nc1SC (centres unmarked) [Compound No. 0361, 5-sec-butyl-6-methylthio-2-(1H-pyrazol-1-yl)-N-(2,2,2-trifluoroethyl)pyrimidine-4-amine]
pest or weed control at 500 ppm [1]: 100%
pest or weed control at 500 ppm [6]: 100%
pest or weed control at 500 ppm [2]: 100%
pest or weed control at 500 ppm [3]: 100%

CCC(C)c1c(NCC(F)(F)F)nc(-n2cccn2)nc1S(C)(=O)=O (centres unmarked) [Compound No. 0363, 5-sec-butyl-6-methylsulfonyl-2-(1H-pyrazol-1-yl)-N-(2,2,2-trifluoroethyl)pyrimidine-4-amine]
melting point: 52 to 55 °C

CCC(C)c1c(NCC(F)(F)F)nc(-n2cccn2)nc1N(CC)CC (centres unmarked) [Compound No. 0371, 5-sec-butyl-N^4, N^4-diethyl-2-(1H-pyrazol-1-yl)-N^6-(2,2,2-trifluoroethyl)pyrimidine-4,6-diamine]
pest or weed control at 500 ppm [6]: 100%
pest or weed control at 500 ppm [2]: 100%

CCc1nc(-n2cccn2)nc(NCC(F)(F)F)c1C(C)CC (centres unmarked) [Compound No. 0385, 5-sec-butyl-6-ethyl-2-(1H-pyrazol-1-yl)-N-(2,2,2-trifluoroethyl)pyrimidine-4-amine]
pest or weed control at 500 ppm [1]: 100%
pest or weed control at 500 ppm [6]: 100%
pest or weed control at 500 ppm [2]: 100%
pest or weed control at 500 ppm [4]: 100%
melting point: 89 to 90 °C

CCC(C)c1c(NCC(F)(F)F)nc(-n2cccn2)nc1C1CC1 (centres unmarked) [Compound No. 0387, 5-sec-butyl-6-cyclopropyl-2-(1H-pyrazol-1-yl)-N-(2,2,2-trifluoroethyl)pyrimidine-4-amine]
pest or weed control at 500 ppm [1]: 100%
pest or weed control at 500 ppm [6]: 100%
pest or weed control at 500 ppm [2]: 100%
pest or weed control at 500 ppm [3]: 100%
melting point: 84 to 85 °C

CCC(C)c1c(Cl)nc(-n2cc(Cl)cn2)nc1NCC(F)(F)F (centres unmarked) [Compound No. 0434, 5-sec-butyl-6-chloro-2-(4-chloro-1H-pyrazol-1-yl)-N-(2,2,2-trifluoroethyl)pyrimidine-4-amine]
pest or weed control at 500 ppm [1]: 100%
pest or weed control at 500 ppm [6]: 100%
pest or weed control at 500 ppm [3]: 100%
melting point: 173 to 174 °C

CCOC(=O)c1cnn(-c2nc(Cl)c(C(C)CC)c(NCC(F)(F)F)n2)c1N (centres unmarked) [Compound No. 0601, ethyl 5-amino-1-[5-sec-butyl-4-chloro-6-(2,2,2-trifluoroethylamino)pyrimidin-2-yl]-1H-pyrazol-4-carboxylate]
melting point: 173 to 174 °C

CCC(C)c1cnc(-n2cccn2)nc1N1CCC(C)CC1 (centres unmarked) [Compound No. 1190, 5-sec-butyl-4-(4-methylpiperidin-1-yl)-2-(1H-pyrazol-1-yl)pyrimidine]
pest or weed control at 500 ppm [6]: 100%
pest or weed control at 500 ppm [2]: 100%
pest or weed control at 500 ppm [3]: 100%
pest or weed control at 500 ppm [4]: 100%

CCC(C)c1c(Cl)nc(-n2cccn2)nc1N1CCC(C)CC1 (centres unmarked) [Compound No. 1192, 5-sec-butyl-4-chloro-6-(4-methylpiperidin-1-yl)-2-(1H-pyrazol-1-yl)pyrimidine]
pest or weed control at 500 ppm [6]: 100%
pest or weed control at 500 ppm [3]: 100%

CCC(C)c1c(SC)nc(-n2cccn2)nc1N1CCC(C)CC1 (centres unmarked) [Compound No. 1204, 5-sec-butyl-6-(4-methylpiperidin-1-yl)-4-methylthio-2-(1H-pyrazol-1-yl)pyrimidine]
pest or weed control at 500 ppm [6]: 100%
pest or weed control at 500 ppm [3]: 100%
melting point: 69 to 71 °C

CCC(C)c1c(C#N)nc(-n2cccn2)nc1N1CCC(C)CC1 (centres unmarked) [Compound No. 1215, 5-sec-butyl-6-(4-methylpiperidin-1-yl)-2-(1H-pyrazol-1-yl)pyrimidine-4-carbonitrile]
pest or weed control at 500 ppm [6]: 100%
pest or weed control at 500 ppm [2]: 100%
pest or weed control at 500 ppm [3]: 100%

CCC(C)c1c(C)nc(-n2cccn2)nc1N1CCC(C)CC1 (centres unmarked) [Compound No. 1225, 5-sec-butyl-4-methyl-6-(4-methylpiperidin-1-yl)-2-(1H-pyrazol-1-yl)pyrimidine]
pest or weed control at 500 ppm [6]: 100%
pest or weed control at 500 ppm [2]: 100%
pest or weed control at 500 ppm [4]: 100%
